Consider three molecules from patent publication US20230144845A1 (The Regents of the University of California, priority 2016, published 2023).

What all share (format): in vivo
The test system of one assay is C. elegans. In words: Lifespan of adult worms (C. elegans). The following applies: P<0.0001 (log-rank test) vs vehicle.
Assay [1] has as its system 6-week old C57/B6 mice. Description: Topical treatment of shaved dorsal skin of young mice: pigmentation and hair growth. To be noted: 16 mM in Transdermal Gel, topical every other day, vs control. As for the experimental part:
Mice were topically (unless indicated otherwise) treated every other day with the indicated amount and photos were taken every week. Mice were monitored for the appearance of skin pigmentation, signaling the initiation of anagen. No hair growth (and no pigmentation) was assigned the arbitrary value of 0. Skin darkening was given a value from 0 to 100%, with the higher number indicating darker skin and visible hair growth.
Compounds were dissolved in Transdermal Gel at 16 mM and applied on mice dorsal skin every other day. To show the pigmentation progression, the appearance of skin pigmentation, signaling the initiation of anagen, was assigned an arbitrary value based on skin darkening. No hair growth (and no pigmentation) was assigned a value of 0 and darker skin/visible hair growth was assigned with higher numbers. Photos were taken weekly to document the pigmentation/hair changes.
Dorsal hair was shaved by trimmer at Week 7 and α-KB acid was dissolved in Transdermal Gel at 16 mM and applied on mice dorsal skin every other day.

Assay [2] concerns 101-week old C57BL/6J mice. Description: Oral α-KB in drinking water in aged mice: survival, aging traits, hair. As for the experimental part:
(§1) Additionally, α-KG was administrated in drinking water to 6-week old C57/B6 mice for 10 weeks. α-KG was dissolved at 16 mM and water was changed every other day to ensure the integrity of the compound. Oral administration of α-KB was tested in 101-week old C57/B6 mice and lasted for 30 weeks. The concentration of α-KB was 8 mM and water was changed weekly. Pigmentation/hair changes were also monitored by assigning arbitrary values and photos.
Based on the lifespan extending effects of α-KB in C. elegans (FIG. 2), the anti-aging properties in mice were examined. Aged 101-week old C57BL/6J mice were treated with 8 mM α-KB acid dissolved in drinking water for up to 30 weeks.

Assay [3] has as its system 6-week old C57/B6 mice. In words: Oral α-KG in drinking water in young mice: hair growth. To be noted: 16 mM in drinking water, 10 weeks, vs negative controls. On the procedure:
as §1

Entries after “also recorded” stand apart in the source; their conditions may differ.

As to `CC[C@H](O)C(=O)O` [2-HB, 2-hydroxybutyrate], the “mean lifespan (days of adulthood)” value with C. elegans is recorded as 19.8 days of adulthood. Also, in the assay with 6-week old C57/B6 mice [1], the hair growth result was “had hair growing back faster; also recorded: accelerated pigmentation and hair growth on Day 14”; the “skin pigmentation (initiation of anagen)” value is “showed pigmentation earlier; also recorded: pigmentation improved; also recorded: accelerated pigmentation”.
In the case of `CCC(=O)C(=O)O` [α-KB, alpha-ketobutyrate], the “mean lifespan (days of adulthood)” value in the assay on C. elegans is reported as 22.4 days of adulthood. In the assay with 6-week old C57/B6 mice [1], the hair growth entry was “hair growth was accelerated; also recorded: stimulates hair growth by Day 14” and the “skin pigmentation (initiation of anagen)” value was “started to show pigmentation patches after one week; also recorded: improved pigmentation”. Moreover, in assay [2] (aged mice, 8 mM in drinking water), the “aging traits (such as cataracts)” value is recorded as “prevented aging traits in aged mice”. Moreover, the “age-related hair loss / hair pigmentation and density on dorsal skin” value in assay [2] (aged mice, not shaved, 8 mM in drinking water, vs control) is “exhibited black and thick hair; also recorded: delays or reduces age-related hair loss”. Besides, the “lifespan / survival of old male mice” value in assay [2] (old male C57BL/6J mice, 8 mM in drinking water from 101 weeks for up to 30 weeks, P=0.0476 (Fisher's exact test)) was “significantly increased survival to beyond 131 weeks of age in male animals; also recorded: increases the lifespan of old male C57BL/6J mice”.
On to `O=C(O)CCC(=O)C(=O)O` [α-KG, alpha-ketoglutarate], for which, in the assay on C. elegans, the “mean lifespan (days of adulthood)” value is recorded as 26.1 days of adulthood. For the same molecule, in the assay on 6-week old C57/B6 mice [3], the “hair growth after oral administration” value is “confirmed its effects for hair growth; also recorded: significantly induces hair growth”.
